# Data taken from PMC6543911, “Discovery of Coumarin as Microtubule Affinity-Regulating Kinase 4 Inhibitor That Sensitize Hepatocellular Carcinoma to Paclitaxel” (Frontiers in Chemistry, 2019).
# Tested on: HepG2 cells
# Experiment: Cell viability assay (MTT) in HepG2 cells
# Format: cell-based
# Settings: HepG2 cells transiently transfected with MARK4-knockdown vs control vectors
# Experimental: HepG2 and SMMC-7721 cells were cultured in DMEM medium (Gibco) supplemented with 10% FBS (Gibco, USA). For transient transfection, cells were transfected with DNA by Lipofectamine 2000 (Thermo fisher, USA).
# HCC cells (100 μL/each well, 20,000 cells/mL) were seeded in a 96-well culture plate and allowed to grow for 24 h in DMEM medium supplemented with 10% FBS and 1% penicillin/streptomycin sulfate. The cells were then treated with drugs or vehicle control and incubated in a 5% CO2 incubator for indicated time. At the end of incubation, 10 μL of MTT stock solution (5 mg/mL) was added into each well. The plate was continued to be incubated at 37°C for 4 h before the medium was removed. Then, DMSO (100 μL) was added into each well, followed by thorough shaking. The absorbance of the formazan product was measured at 570 nm on Thermo Scientific Varioskan Flash Multimode Reader. The IC50 value was obtained by fitting dose-response data to a three parametric non-linear regression model using GraphPad Prism 6.0 software.
row,SMILES,sensitivity in MARK4-knockdown cells
1,CC(=O)O[C@H]1C(=O)[C@@]2(C)[C@H]([C@H](OC(=O)c3ccccc3)[C@]3(O)C[C@H](OC(=O)[C@H](O)[C@@H](NC(=O)c4ccccc4)c4ccccc4)C(C)=C1C3(C)C)[C@]1(OC(C)=O)CO[C@@H]1C[C@@H]2O [paclitaxel],increased sensitivity

# Same assay, conditions: Homo sapiens; HepG2 cells, MTT
row,SMILES,IC50 [µM]
1,"COc1cccc(-c2cc3cc(Cl)cc(Cl)c3oc2=O)c1 [6,8-dichloro-3-(3-methoxyphenyl)-2H-chromen-2-one]",15.9

# Tested on: HepG2 cells
# Experiment: Cell apoptosis assay (Annexin V-FITC/PI flow cytometry) in HepG2 cells
# Format: cell-based
# Settings: 2.5 μM alone
# Experimental: HCC cells (2 × 10^5 cells/well) were plated in a 6-well plate and treated with samples at 37°C for 36 h. After incubation, the cells were harvested and washed with ice-cold PBS. Annexin V-FITC-PI apoptosis detection kit (Abcam, USA) was used for a direct observation of viable, early apoptotic, and late apoptotic cells. Annexin V-FITC and propidium iodide were added according to the manufacturer's instructions, and the samples were incubated in the dark for 15 min. The apoptosis ratio was analyzed using BD FACSCalibur flow cytometry.
row,SMILES,"apoptosis, single agent"
1,CC(=O)O[C@H]1C(=O)[C@@]2(C)[C@H]([C@H](OC(=O)c3ccccc3)[C@]3(O)C[C@H](OC(=O)[C@H](O)[C@@H](NC(=O)c4ccccc4)c4ccccc4)C(C)=C1C3(C)C)[C@]1(OC(C)=O)CO[C@@H]1C[C@@H]2O [paclitaxel],unable to trigger distinct apoptosis

# Biological target: T1, MARK4 catalytic domain (Homo sapiens, UniProt Q96L34)
# T1 construct: The recombinant MARK4 catalytic domain was used as kinase; made in house; host or cells: E. coli BL21 (DE3)
# T1 sequence (Q96L34 59-310 limits assumed): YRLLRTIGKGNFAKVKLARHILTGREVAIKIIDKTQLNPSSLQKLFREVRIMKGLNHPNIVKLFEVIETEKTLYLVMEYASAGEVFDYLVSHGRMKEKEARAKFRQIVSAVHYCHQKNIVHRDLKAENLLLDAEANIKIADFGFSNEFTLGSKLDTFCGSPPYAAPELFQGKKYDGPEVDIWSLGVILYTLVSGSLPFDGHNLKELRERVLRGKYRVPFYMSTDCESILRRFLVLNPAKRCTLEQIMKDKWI
# Experiment: Kinase activity assay (ADP-Glo) using MARK4 as enzyme
# Format: biochemical
# Settings: MARK4 5 nM, 100 μM ATP, 5 μM MAP4, 30 min; duplicate, means ± SEM
# Experimental: MARK4 catalytic domain sequence was subcloned into pET-28a vector. Protein expression in E. coli. BL21 (DE3) was induced by IPTG overnight at 16°C, and the cells were then pelleted by centrifugation at 4,000 rpm for 15 min and resuspended in 20 mL buffer (20 mM Tris-HCl, 150 mM NaCl, 25 mM imidazole pH 8.0). Proteins were purified by nickel-affinity chromatography followed by thrombin cleavage. The proteins were further purified by size-exclusion chromatography using a Superdex 75 column (GE Healthcare).
# The kinase activity of MARK4 was measured via ADP-Glo™ kinase assay kit (Promega, USA) under manufacturer's instruction. The recombinant MARK4 catalytic domain was used as kinase. MARK4 (5 nM) activity was tested in a reaction (10 μL) containing 25 mM Tris (pH 7.6), 10 mM MgCl2, 150 mM NaCl, 1 mM EDTA, 1 mM DTT, 100 μM ATP, 5 μM MAP4 and varied concentrations of samples for 30 min. The reaction progress was monitored on Thermo Scientific Varioskan Flash Multimode Reader. Each data point was collected in duplicate and kinetic parameters were obtained using GraphPad Prism v6.0 software.
row,SMILES,IC50 [µM]
1,COc1cccc(-c2cc3cccc(OC)c3oc2=O)c1 [Compound 13],8.98 ± 2.74
2,COc1cc(-c2cc3cc(Br)cc(OC)c3oc2=O)c(OC)c(OC)c1OC [Compound 36],33.6 ± 2.75
3,COc1cccc(-c2cc3cc(Cl)cc(Cl)c3oc2=O)c1 [Compound 25],7.76 ± 2.93
4,COc1ccc2c(C)cc(=O)oc2c1 [Compound 55],> 50
5,O=c1oc2ccccc2cc1-c1ccc(F)cc1 [Compound 32],37.7 ± 6.07
6,O=C(c1ccccc1)c1cc2cc(Cl)ccc2oc1=O [Compound 49],4.12 ± 0.605
7,COc1ccc2ccc(=O)oc2c1 [Compound 10],25.1 ± 5.81
8,COc1cccc2ccc(=O)oc12 [Compound 1],> 50
9,COc1cccc(-c2cc3ccccc3oc2=O)c1 [Compound 30],39.3 ± 3.12
10,O=c1ccc2ccccc2o1 [Compound 4],41 ± 5.4
11,"COc1cccc(-c2cc3cc(Cl)cc(Cl)c3oc2=O)c1 [6,8-dichloro-3-(3-methoxyphenyl)-2H-chromen-2-one]",7.8
12,COc1cc(=O)oc2ccccc12 [Compound 64],40.4 ± 2.87
13,O=c1oc2ccccc2cc1-c1ccccc1 [Compound 31],35 ± 5.78
14,O=c1cc(-c2ccccc2)c2c(O)cc(O)cc2o1 [Compound 57],> 50
15,Cc1cc(=O)oc2cc(O)cc(O)c12 [Compound 56],> 50
16,"O=c1sc2ccccc2cc1-c1ccc(F)cc1 [Compound 68, 3-(4-Fluorophenyl)-2H-thiochromen-2-one]",32.2 ± 2.75
17,COc1cc(-c2cc3cc(Cl)ccc3oc2=O)cc(OC)c1OC [Compound 21],25.5 ± 1.01
18,O=c1oc2c(Cl)cc(Cl)cc2cc1-c1ccccc1 [Compound 27],42.1 ± 3.99
19,COc1cccc2cc(C(C)=O)c(=O)oc12 [Compound 47],14.6 ± 2.99
20,COc1cc(Br)cc2cc(-c3ccc(OC(C)=O)cc3)c(=O)oc12 [Compound 42],> 50
21,COc1cc(Br)cc2cc(-c3cccc(O)c3)c(=O)oc12 [Compound 45],> 50
22,COc1ccc(-c2cc3cc(Br)cc(OC)c3oc2=O)cc1 [Compound 34],> 50
23,O=C(c1ccccc1)c1cc2c(ccc3ccccc32)oc1=O [Compound 54],21.3 ± 2

row,SMILES,IC50 [µM]
1,"COc1ccc(-c2cc3ccccc3sc2=O)cc1OC [Compound 67, 3-(3,4-Dimethoxyphenyl)-2H-thiochromen-2-one]",11.1 ± 0.786
2,O=C(c1ccccc1)c1cc2ccccc2oc1=O [Compound 52],27 ± 3.65
3,O=c1cc(-c2ccccc2)c2c(OCc3ccccc3)cc(OCc3ccccc3)cc2o1 [Compound 61],> 50
4,"COc1ccc(-c2cc3ccccc3sc2=O)cc1 [Compound 66, 3-(4-Methoxyphenyl)-2H-thiochromen-2-one]",35.6 ± 3.9
5,CC(=O)c1cc2ccccc2oc1=O [Compound 51],25.9 ± 2.73
6,COc1ccccc1-c1cc2cc(Cl)cc(Cl)c2oc1=O [Compound 26],> 50
7,O=c1ccc2cc(Cl)cc(Cl)c2o1 [Compound 3],> 50
8,COc1cc(-c2cc3cc(Br)cc(OC)c3oc2=O)cc(OC)c1OC [Compound 37],37.8 ± 5.43
9,COc1cccc(-c2cc3cc(Br)cc(OC)c3oc2=O)c1 [Compound 35],12.8 ± 1.25
10,COc1cc(Br)cc2cc(-c3cccnc3)c(=O)oc12 [Compound 44],> 50
11,COc1cccc2cc(-c3ccccc3)c(=O)oc12 [Compound 15],31.5 ± 2.28
12,Cc1cc(=O)oc2cc(OCc3ccccc3)cc(OCc3ccccc3)c12 [Compound 59],> 50
13,O=c1cc(OCc2ccccc2)c2ccccc2o1 [Compound 63],> 50
14,CC(C)(C)C(=O)c1cc2ccccc2oc1=O [Compound 53],25 ± 2.4
15,O=c1sc2ccccc2cc1-c1ccccc1 [Compound 65],36.1 ± 1.65
16,COc1cc(Br)cc2cc(-c3ccc(F)cc3)c(=O)oc12 [Compound 40],38.8 ± 4.83
17,COc1ccc(-c2cc3ccccc3oc2=O)cc1 [Compound 29],37.4 ± 2.84
18,COc1ccc(-c2cc3cc(Cl)ccc3oc2=O)cc1 [Compound 19],27 ± 2.38
19,COc1cc(Br)cc2cc(-c3ccc(Cl)cc3)c(=O)oc12 [Compound 39],16.9 ± 4.26
20,CC(C)(C)c1cc(C(C)(C)C)c2oc(=O)ccc2c1 [Compound 9],> 50
21,COc1cccc2cc(-c3ccc(F)cc3)c(=O)oc12 [Compound 17],> 50
22,O=c1oc2ccc(Cl)cc2cc1-c1ccc(Cl)cc1 [Compound 22],28 ± 2.01
23,COc1cc(-c2cc3cccc(OC)c3oc2=O)cc(OC)c1OC [Compound 14],34.5 ± 3.3

row,SMILES,IC50 [µM]
1,O=c1ccc2cc(Cl)ccc2o1 [Compound 2],> 50
2,COc1cc(Br)cc2cc(-c3cccc(OC(C)=O)c3)c(=O)oc12 [Compound 41],> 50
3,COc1cc(OC)c2c(C)cc(=O)oc2c1 [Compound 58],> 50
4,COc1cc(OC)c2c(-c3ccccc3)cc(=O)oc2c1 [Compound 60],> 50
5,CCOc1cccc2ccc(=O)oc12 [Compound 7],> 50
6,COc1ccc(-c2cc3cc(Cl)cc(Cl)c3oc2=O)cc1 [Compound 24],10 ± 3.65
7,COc1ccc(-c2cc3cc(Cl)ccc3oc2=O)cc1OC [Compound 18],31 ± 2.81
8,COc1ccc(-c2cc3ccccc3oc2=O)cc1OC [Compound 28],> 50
9,O=c1ccc2cc([N+](=O)[O-])ccc2o1 [Compound 8],37.9 ± 3.45
10,COc1ccccc1-c1cc2cc(Cl)ccc2oc1=O [Compound 20],> 50
11,COc1ccc(-c2cc3cccc(OC)c3oc2=O)cc1 [Compound 12],22.8 ± 4.61
12,COc1ccc(-c2cc3cccc(OC)c3oc2=O)cc1OC [Compound 11],29.7 ± 4.21
13,COc1ccc(OC)c(-c2cc3cc(Br)cc(OC)c3oc2=O)c1 [Compound 43],> 50
14,COc1ccc(-c2cc3cc(Cl)cc(Cl)c3oc2=O)cc1OC [Compound 23],17.4 ± 2.69
15,COc1cccc2cc(-c3ccc(Cl)cc3)c(=O)oc12 [Compound 16],> 50
16,Cc1ccc2oc(=O)ccc2c1 [Compound 6],> 50
17,COc1cccc2cc(C(=O)c3ccccc3)c(=O)oc12 [Compound 48],2.1 ± 0.372
18,O=c1cc(O)c2ccccc2o1 [Compound 62],> 50
19,COc1cc(Br)cc2cc(-c3ccc(O)cc3)c(=O)oc12 [Compound 46],> 50
20,COc1ccc2oc(=O)ccc2c1 [Compound 5],35 ± 3.73
21,COc1cc(Br)cc2cc(-c3ccccc3)c(=O)oc12 [Compound 38],40.9 ± 4.04
22,COc1ccc(-c2cc3cc(Br)cc(OC)c3oc2=O)cc1OC [Compound 33],46.3 ± 3.04
